Patent US8338426B2, “Piperazinyl derivatives useful as modulators of the neuropeptide Y2 receptor” (Janssen Pharmaceutica NV, priority 2007, dated 2012)
Changes are numbered by the printed parent chain.

Legend:
human Y2 receptor = target: T1, human Y2 receptor (Homo sapiens, UniProt P49146); experiment: Neuropeptide Y2 radioligand binding assay, [125I]PYY, KAN-Ts cells; details: KANT-S cells, mean ± S.E.M., read-out: hY2 pKi (converted)
T1 construct: KAN-Ts endogenously expressing Y2 receptors were used; endogenous in cells; host or cells: KAN-Ts cells
T1 sequence (P49146 1-381): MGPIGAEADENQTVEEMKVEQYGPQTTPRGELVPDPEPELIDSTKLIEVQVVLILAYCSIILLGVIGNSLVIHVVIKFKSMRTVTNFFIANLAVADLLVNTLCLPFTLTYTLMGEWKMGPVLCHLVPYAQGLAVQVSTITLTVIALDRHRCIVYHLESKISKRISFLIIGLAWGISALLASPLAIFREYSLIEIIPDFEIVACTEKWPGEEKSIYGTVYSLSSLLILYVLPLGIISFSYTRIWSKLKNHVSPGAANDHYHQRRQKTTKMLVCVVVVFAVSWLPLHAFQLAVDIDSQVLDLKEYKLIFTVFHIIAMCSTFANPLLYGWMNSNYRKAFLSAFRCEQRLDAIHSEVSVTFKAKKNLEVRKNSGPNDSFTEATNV
Procedure: (§1) Radioligand binding assays for the human and rat/mouse Y2 receptor were performed as described in Bonaventure, P., D. Nepomuceno, C. Mazur, B. Lord, D. A. Rudolph, J. A. Jablonowski, N. I. Carruthers and T. W. Lovenberg, J Pharmacol Exp Ther. 2004, 308, 1130.
(§2) KAN-Ts endogenously expressing Y2 receptors were used, for the rat and mouse Y2 receptor, membranes from rat or mouse hippocampus were prepared. Membranes were incubated with [^125I]PYY (80 pM) in the presence or absence of test compound for 1 h at rt. The reaction was stopped by filtration through GF/C filter plates pre-soaked in 0.3% polyethylenimine and subsequently washed with Tris-HCl, 50 mM, 5 mM EDTA buffer. Plates were dried for 1 h in a 55° C. oven, scintillation fluid was added and the radioactivity was counted in a Packard TopCount. Specific binding to the NPY receptor subtypes was determined by radioactivity that was bound in the presence of 1 μM NPY.
(§3) Apparent Ki values were calculated as K=IC50/(1+C/KD), where C is concentration of the radioligand and pKi=−log Ki. Data presented below are expressed as mean±S.E.M.

hY2 = target: T2, hY2 (Homo sapiens, UniProt P49146); experiment: Ca2+ mobilization assay (FLIPR) in KAN-Ts cells; type: cell-based; details: KANT-S cells, inhibition of PYY stimulated Ca2+ increase, read-out: hY2 pKB (converted)
T2 construct: KAN-Ts endogenously expressing Y2 receptors were used; endogenous in cells; host or cells: KAN-Ts cells stably expressing chimeric G proteins
T2 sequence (P49146 1-381): T1 sequence (P49146 1-381)
Procedure: The assay was performed using the fluorimetric imaging plate reader (FLIPR) format as described in Dautzenberg, F. M., Biochemical Pharmacology 2005, 69, 1493.
KAN-Ts cells stably expressing chimeric G proteins were seeded at a density of 100,000 cells into poly-d-lysine coated 384-well blackwall, clear-bottom microtiter plates (Corning, N.Y.). One day later, the medium was removed and 50 μl loading medium DMEM high glucose, without serum, supplemented with 10 mM HEPES-acid, 0.1% BSA, 5 mM probenecid and 2 μM Fluo-3AM was added. Cells were loaded for 1 h at 37° C., washed twice with 50 μl assay buffer (5 mM HEPES-acid, 140 mM NaCl, 1 mM MgCl2, 5 mM KCl, 10 mM glucose) and then 30 μl assay buffer was added. Cells were further pre-incubated at room temperature before adding agonists or agonists plus antagonists in 20 μl assay buffer and then measured on a T-channel fluorometric imaging plate reader (FLIPR, Molecular Devices, Sunnyvale, Calif.).
Antagonistic potency values were converted to apparent pKB values using a modified Cheng-Prusoff correction. Apparent pKB=−log IC50/1+[conc agonist/EC50]. Data below are expressed as mean±S.E.M.
The in vitro antagonistic properties of the compound of formula (A) were confirmed using Ca^2+ measurement.

MTP = MTP (Homo sapiens, UniProt P55157); experiment: MTP assay (triglyceride transfer between vesicles); type: biochemical; details: read-out: MTP pIC50 (converted)
Procedure: MTP activity was measured using an assay similar to one described by J. R. Wetterau and D. B. Zilversmit in Chemistry and Physics of Lipids (1985) 38, 205-222.
In order to prepare the donor and acceptor vesicles, the appropriate lipids in chloroform were put into a glass test tube and dried under a stream of nitrogen. A buffer containing 15 mM Tris-HCl (pH 7.5), 1 mM ethylenediamine tetra-acetic acid, 40 mM NaCl, 0.02% NaN3 (assay buffer) was added to the dried lipid. The mixture was vortexed briefly and the lipids were then allowed to hydrate for 20 minutes on ice. Vesicles were then prepared by bath sonication (using a Branson 2200 device) at room temperature for at most 15 minutes. Butylated hydroxytoluene was included in all vesicle preparations at a concentration of 0.1%. The lipid transfer assay mixture contained donor vesicles (40 nmole phosphatidylcholine, 7.5 mole % cardiolipin and 0.25 mole % glycerol tri[1-^14C]-oleate), acceptor vesicles (240 nmol phosphatidylcholine) and 5 mg bovine serum albumin in a total volume of 675 μl in a 1.5 ml microcentrifuge tube. Test compound was added dissolved in dimethylsulfoxide (0.13% final concentration). After 5 minutes of pre-incubation at 37° C., the reaction was started by the addition of MTP in 100 μl of a dialysis buffer. The reaction was stopped by the addition of 400 μl […] (DEAE)-52 cellulose (Sephadex) pre-equilibrated in 15 mM Tris-HCl (pH 7.5), 1 mM ethylenediamine tetra-acetic acid and 0.02% NaN3 (1:1 volume/volume). The mixture was agitated for 4 minutes and centrifuged for 2 minutes at maximum speed in an Eppendorf centrifuge (4° C.) to pellet the DEAE-52-bound donor vesicles. An aliquot of the supernatant containing the acceptor liposomes was counted and the [^14C]-counts were used to calculate the percent triglyceride transfer from donor to acceptor vesicles.
Representative compounds of the present invention were measured for binding against the MTP receptor, as described above, with results as listed in Table 2 below.

[1] = target: T3, Y2 receptor binding sites in rat hippocampus (Rattus norvegicus, UniProt Q9ERC0); experiment: Ex vivo Y2 receptor occupancy in rats (autoradiography); details: SC administration (10 mg/kg)
T3 construct: from tissue; host or cells: rat brain sections (hippocampus) after in vivo dosing
T3 sequence (Q9ERC0 1-381): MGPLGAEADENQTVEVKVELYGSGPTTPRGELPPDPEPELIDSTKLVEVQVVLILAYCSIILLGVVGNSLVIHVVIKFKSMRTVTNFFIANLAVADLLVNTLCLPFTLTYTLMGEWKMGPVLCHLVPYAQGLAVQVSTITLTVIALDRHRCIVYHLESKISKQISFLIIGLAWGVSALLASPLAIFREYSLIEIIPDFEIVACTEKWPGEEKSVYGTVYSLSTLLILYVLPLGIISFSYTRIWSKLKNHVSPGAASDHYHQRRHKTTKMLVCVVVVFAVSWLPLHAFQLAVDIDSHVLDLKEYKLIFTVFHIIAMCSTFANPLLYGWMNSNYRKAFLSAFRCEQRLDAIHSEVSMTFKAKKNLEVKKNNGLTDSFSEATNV
Procedure: The pharmacokinetic, blood-brain barrier penetration and ex vivo receptor occupancy studies were performed as described in Bonaventure, P., D. Nepomuceno, C. Mazur, B. Lord, D. A. Rudolph, J. A. Jablonowski, N. I. Carruthers and T. W. Lovenberg, J Pharmacol Exp Ther. 2004, 308, 1130.
The compound of formula (A) was formulated in 20% hydroxypropylbetacyclodextrine. Subcutaneous (SC), oral (PO) or intravenous (IV) dosing was followed by blood sampling via cardiac puncture over a time course. Blood samples consisted of 250 μl samples taken from the heart using a 23-gauge needle into 1.5 ml micro-centrifuge tubes. Brains were removed from the animals and bisected down the midsagittal plane. One hemisphere was frozen on dry ice for ex vivo receptor binding autoradiography and the other was homogenized for LC/MS-MS analysis.
Ex vivo receptor binding autoradiography was performed on brain sections. Twenty-micron-thick coronal sections at the level of the […] regions were collected and incubated for 10 min with 100 pM [^125I]PYY in Krebs-Ringer phosphate buffer (KRP) at pH 7.4 supplemented with 0.1% BSA, 0.05% bacitracin, and 1 μM BIBP-3226 for Y1 receptor occlusion. The sections were not washed prior to incubation and were incubated 10 minutes to avoid dissociation. Nonspecific binding was determined using adjacent sections incubated in the presence of 1 μM unlabelled hNPY. At the end of the incubation, sections were washed 4 times (4 minutes each) in ice cold buffer, dipped in deionized water and rapidly dried under a stream of cold air. Sections were exposed to a Fujifilm Imaging Plate (BAS-MS2025) for 12 hours. The Phosphor Imaging Plate was scanned using a Fuji Bio-Imaging Analyzer System (BAS-5000). The digitized computer images generated by the scanner were visualized and quantified using ImageGauge V3.12 software (Fujifilm).

rat Y2 receptor = target: T4, rat Y2 receptor (Rattus norvegicus, UniProt Q9ERC0); experiment: Neuropeptide Y2 radioligand binding assay, [125I]PYY, rat hippocampus membranes; details: read-out: rY2 pKi (converted)
T4 construct: membranes from rat or mouse hippocampus were prepared; from tissue; host or cells: rat hippocampus membranes
T4 sequence (Q9ERC0 1-381): T3 sequence (Q9ERC0 1-381)
Procedure: as §1, §2, §3

mouse Y2 receptor = target: T5, mouse Y2 receptor (Mus musculus, UniProt P97295); experiment: Neuropeptide Y2 radioligand binding assay, [125I]PYY, mouse hippocampus membranes; details: read-out: mY2 pKi (converted)
T5 construct: membranes from rat or mouse hippocampus were prepared; from tissue; host or cells: mouse hippocampus membranes
T5 sequence (P97295 1-381): T3 sequence (Q9ERC0 1-381) with L4V, L20P, S23P, P25H, V52I, Q163R, V175I, K247R, T266M, L371P
Procedure: as §1, §2, §3

MTP, sequence (P55157 19-894, species assumed): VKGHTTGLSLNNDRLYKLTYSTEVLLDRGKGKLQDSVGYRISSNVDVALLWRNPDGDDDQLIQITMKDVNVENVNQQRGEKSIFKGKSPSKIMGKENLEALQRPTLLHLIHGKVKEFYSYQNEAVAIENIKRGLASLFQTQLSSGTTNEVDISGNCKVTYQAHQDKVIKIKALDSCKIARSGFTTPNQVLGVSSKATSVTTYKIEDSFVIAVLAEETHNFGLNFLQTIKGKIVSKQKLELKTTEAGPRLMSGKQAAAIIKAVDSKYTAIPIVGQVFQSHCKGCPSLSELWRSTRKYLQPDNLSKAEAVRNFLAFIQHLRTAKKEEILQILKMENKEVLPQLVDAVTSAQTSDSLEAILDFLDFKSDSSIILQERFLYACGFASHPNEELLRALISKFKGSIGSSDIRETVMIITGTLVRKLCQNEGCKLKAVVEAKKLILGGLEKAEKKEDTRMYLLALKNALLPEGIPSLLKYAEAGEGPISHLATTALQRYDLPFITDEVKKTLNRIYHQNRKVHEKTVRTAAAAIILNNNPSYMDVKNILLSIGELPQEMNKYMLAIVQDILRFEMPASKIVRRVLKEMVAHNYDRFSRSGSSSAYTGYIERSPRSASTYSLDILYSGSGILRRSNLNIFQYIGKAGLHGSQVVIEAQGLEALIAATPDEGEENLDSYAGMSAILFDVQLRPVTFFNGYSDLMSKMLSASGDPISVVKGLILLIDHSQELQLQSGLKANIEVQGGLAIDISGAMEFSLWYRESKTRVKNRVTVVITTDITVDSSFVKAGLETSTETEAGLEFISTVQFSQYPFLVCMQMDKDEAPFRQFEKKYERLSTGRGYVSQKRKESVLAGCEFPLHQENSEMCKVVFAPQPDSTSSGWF
MTP, sequence (P07237 18-508 partner, species assumed): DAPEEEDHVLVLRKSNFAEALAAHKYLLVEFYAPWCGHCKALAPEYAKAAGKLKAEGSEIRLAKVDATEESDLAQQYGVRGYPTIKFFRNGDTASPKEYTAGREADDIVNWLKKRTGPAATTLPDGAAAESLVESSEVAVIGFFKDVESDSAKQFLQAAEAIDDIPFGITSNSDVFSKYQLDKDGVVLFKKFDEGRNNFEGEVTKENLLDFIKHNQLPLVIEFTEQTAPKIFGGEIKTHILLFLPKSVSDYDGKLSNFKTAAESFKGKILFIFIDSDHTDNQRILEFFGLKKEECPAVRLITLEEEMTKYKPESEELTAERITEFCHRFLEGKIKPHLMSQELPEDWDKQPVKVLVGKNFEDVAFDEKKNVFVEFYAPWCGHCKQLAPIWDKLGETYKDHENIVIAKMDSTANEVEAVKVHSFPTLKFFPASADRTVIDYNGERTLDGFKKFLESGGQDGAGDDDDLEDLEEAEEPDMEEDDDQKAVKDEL

Row | SMILES | Ki (human Y2 receptor) [nM] | Kb (hY2) [nM] | IC50 (MTP) [nM] | receptor occupancy at 10 mg/kg ([1]; rat, read-out: Y2 receptor occupancy in rat brain) [%] | Ki (rat Y2 receptor) [nM] | Ki (mouse Y2 receptor) [nM] | Y2 receptor occupancy in rat brain [1]
1 | CCNC(=O)C(c1ccccc1)N1CCN(c2ccc(NC(=O)c3ccccc3-c3cccnc3)cc2F)CC1 (racemic) [Cmpd (B), N-{4-[4-(ethylcarbamoyl-phenyl-methyl)-piperazin-1-yl]-3-fluorophenyl}-2-pyridin-3-yl-benzamide] | 32.4 | 50.1 | 251 | ~40 |  |  | 
2 | CCNC(=O)C(c1ccccc1)N1CCN(c2ccc(NC(=O)c3ccccc3-c3cccnc3)cc2F)CC1 (single isomer, unassigned; (+)) [(+)-Cmpd (B), N-{4-[4-(ethylcarbamoyl-phenyl-methyl)-piperazin-1-yl]-3-fluoro-phenyl}-2-pyridin-3-yl-benzamide] | 229 |  | 3980 |  |  |  | 
3 | CCNC(=O)C(c1ccccc1)N1CCN(c2ccc(NC(=O)c3ccccc3-c3cccnc3)cc2F)CC1 (single isomer, unassigned; (-)) [(−)-Cmpd (B), N-{4-[4-(ethylcarbamoyl-phenyl-methyl)-piperazin-1-yl]-3-fluoro-phenyl}-2-pyridin-3-yl-benzamide] | 39.8 |  | 398 |  |  |  | 

Continued, in another order:

Row | Ki (human Y2 receptor) [nM] | Kb (hY2) [nM] | IC50 (MTP) [nM] | receptor occupancy at 10 mg/kg ([1]; rat, read-out: Y2 receptor occupancy in rat brain) [%] | Ki (rat Y2 receptor) [nM] | Ki (mouse Y2 receptor) [nM] | SMILES | Y2 receptor occupancy in rat brain [1]
4 | 7.94 | 0.398 | 316 |  | 10 |  | CCN(CC)C(=O)C(c1ccccc1)N1CCN(c2ccc(NC(=O)c3ccccc3-c3cccnc3)cc2F)CC1 (single isomer, unassigned; (+)) [(+)-Cmpd (A), N-{4-[4-(Diethylcarbamoyl-phenyl-methyl)-piperazin-1-yl]-3-fluoro-phenyl}-2-pyridin-3-yl-benzamide] | 
5 | 3.16 | 0.794 | 6310 |  | 12 | 7.94 | CCN(CC)C(=O)C(c1ccccc1)N1CCN(c2ccc(NC(=O)c3ccccc3-c3cccnc3)cc2F)CC1 (single isomer, unassigned; (-)) [(−)-Cmpd (A), (−)-N-{4-[4-(Diethylcarbamoyl-phenyl-methyl)-piperazin-1-yl]-3-fluoro-phenyl}-2-pyridin-3-yl-benzamide] | 
6 | 7.59 | 6.31 | 50.1 |  | 25.1 |  | CCN(CC)C(=O)C(c1ccccc1)N1CCN(c2ccc(NC(=O)c3ccccc3-c3ccccc3)cc2F)CC1 (stereo not shown) [Cmpd (C), Biphenyl-2-carboxylic acid {4-[4-(diethylcarbamoyl-phenyl-methyl)-piperazin-1-yl]-3-fluoro-phenyl}-amide] | did not show any significant level of Y2 receptor occupancy
